Data: PubChem BioAssay (NCI)
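Step 1: Grow cells in 96-well plates. Step 2: Expose to compound for 48 hours at 5 concentrations. Step 3: Interpolate endpoints linearly; if unreached, use highest concentration. TGI: total growth inhibition.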 Where a SMILES comes first, the peptide text is derived from it. The star is where a group is joined. Cbz = O=C(OCc1ccccc1)*

Tests used:
Assay in all cases: NCI-60 cell line screen, 48 h
MOLT-4 leukemia = tested on: MOLT-4 leukemia
NCI-H226 lung = tested on: NCI-H226 lung
MALME-3M melanoma = tested on: MALME-3M melanoma
IGROV1 ovarian = tested on: IGROV1 ovarian
HCT-116 colon = tested on: HCT-116 colon
SN12C renal = tested on: SN12C renal
UACC-257 melanoma = tested on: UACC-257 melanoma
LOX IMVI melanoma = tested on: LOX IMVI melanoma
DU-145 prostate = tested on: DU-145 prostate
NCI/ADR-RES ovarian = tested on: NCI/ADR-RES ovarian
OVCAR-5 ovarian = tested on: OVCAR-5 ovarian
BT-549 breast = tested on: BT-549 breast
MDA-N = tested on: MDA-N

SMILES | TGI (MOLT-4 leukemia) [µM] | TGI (NCI-H226 lung) [µM] | TGI (MALME-3M melanoma) [µM] | TGI (IGROV1 ovarian) [µM] | TGI (HCT-116 colon) [µM] | TGI (SN12C renal) [µM] | TGI (UACC-257 melanoma) [µM] | TGI (LOX IMVI melanoma) [µM] | TGI (DU-145 prostate) [µM] | TGI (NCI/ADR-RES ovarian) [µM] | TGI (OVCAR-5 ovarian) [µM] | TGI (BT-549 breast) [µM] | TGI (MDA-N) [µM]
Nc1nc(Cl)cc(NCCCCCCCCCCCCNc2cc(Cl)nc(N)n2)n1 | > 100 | 66.9 | > 100 | > 100 | > 100 | > 100 | > 100 | 14.5 |  |  |  |  | 
CCSC(=O)/C=C1\CN(C(=O)OC(C)(C)C)C1C(=O)OC(C)(C)C (stereo not drawn) | 4.18 | 27.5 | 4.42 | 14.6 | 3 | 7.06 | 8.91 | 3.3 | 16.3 | > 23.7 | 14.3 | 22.4 | 
CCN(CC)c1cccc2c1C1(O)CCC3(CC21)OCCCCO3 (stereo not drawn) | > 100 | > 100 | > 100 | > 100 | > 100 | > 100 | > 100 | > 100 |  |  | > 100 |  | 
O=C(NCC(C(=O)OCc1ccccc1)C(=O)OCc1ccccc1)OCc1ccccc1 | > 100 | > 100 | > 100 | > 100 |  | > 100 | > 100 |  | > 100 | > 100 | > 100 | > 100 | > 100
CC(C)CCCC(C)[C@H]1CC[C@H]2[C@@H]3CC[C@H]4C[C@@H](CCC=C(c5cc(Cl)c(O)c(C(=O)O)c5)c5cc(Cl)c(O)c(C(=O)O)c5)CC[C@]4(C)[C@H]3CC[C@]12C (stereo partly drawn) (tested in a mixture with another compound) | > 50 | > 50 | > 50 | > 50 | > 50 | > 50 |  | > 50 | > 50 | > 50 | > 50 | > 50 | 
COc1ccc(CCc2ccccc2CC(=O)O)cc1 | > 100 | > 100 | > 100 | > 100 | > 100 | > 100 | > 100 | > 100 |  |  | > 100 |  | 
O=S1c2ccccc2SCSc2ccccc21 | > 100 |  | > 100 |  | > 100 | > 100 |  |  | > 100 | > 100 | > 100 |  | > 100
CC(=O)c1cccc(NC(=O)C(=O)C(C(=O)c2ccccc2F)C2OC(=O)c3ccccc32)c1 (stereo not drawn) | > 100 | 67.3 |  | > 100 | 88.6 | > 100 | > 100 | 62.9 |  |  | > 100 |  | 
CCOC(=O)C(CC(=O)OC)NC(=O)C(CC(=O)OC)NC(=O)C(CC(=O)OC)NC(=O)C(CC(=O)OC)NC(=O)OCc1ccccc1 (stereo not drawn) (Cbz-D(OMe)D(OMe)D(OMe)D(OMe)-OEt; configuration not given here) | > 100 | > 100 | > 100 | > 100 | > 100 | > 100 | > 100 |  |  |  | > 100 | > 100 | > 100
CC(=O)N1N=C(c2c(O)ccc3ccccc23)CC1c1ccc(Cl)cc1 (stereo not drawn) | 31 | > 100 | 76.8 | 63.9 | 28.4 | 39.3 | > 100 |  | > 100 | 43.9 | 58 | 51.1 | 40.5
